From the supplement of paper PMC10307832

Key:
Test in all cases: relative viability (nuclei count vs DMSO), 5 days (fraction); higher = more cells survive
OSI-027 + Pemetrexed = compound: COc1cccc2cc(-c3nc([C@H]4CC[C@H](C(=O)O)CC4)n4ncnc(N)c34)[nH]c12 [OSI-027] + Nc1nc2[nH]cc(CCc3ccc(C(=O)N[C@@H](CCC(=O)O)C(=O)O)cc3)c2c(=O)[nH]1 [Pemetrexed] (partner 0.2 µM)
How it was run: (§1)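 After 5 days of treatment, lung cancer cells in 1536-well plates were fixed and stained in a single step (final 0.05% Triton X-100, 1% formaldehyde, 1 ug/ml Hoechst) and their nuclei counted on 4× images. Treatment had been applied by pin tool the day after seeding as one drug alone or as a fixed anchor-drug dose with five library-drug doses (not always all listed) in √10 steps. Relative viability is the nuclei count of treated wells divided by that of vehicle wells, and values are medians of duplicate plates.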

Vemurafenib + Trametinib = compound: CCCS(=O)(=O)Nc1ccc(F)c(C(=O)c2c[nH]c3ncc(-c4ccc(Cl)cc4)cc23)c1F [Vemurafenib] + CC(=O)Nc1cccc(-n2c(=O)n(C3CC3)c(=O)c3c(Nc4ccc(I)cc4F)n(C)c(=O)c(C)c32)c1 [Trametinib] (partner 0.02 µM)
How it was run: as §1

Alpelisib + Vorinostat = compound: Cc1nc(NC(=O)N2CCC[C@H]2C(N)=O)sc1-c1ccnc(C(C)(C)C(F)(F)F)c1 [Alpelisib] + O=C(CCCCCCC(=O)Nc1ccccc1)NO [Vorinostat] (partner 1 µM)
How it was run: as §1

Vemurafenib + AZD7762 = compound: CCCS(=O)(=O)Nc1ccc(F)c(C(=O)c2c[nH]c3ncc(-c4ccc(Cl)cc4)cc23)c1F [Vemurafenib] + NC(=O)Nc1cc(-c2cccc(F)c2)sc1C(=O)N[C@H]1CCCNC1 [AZD7762] (partner 0.2 µM)
How it was run: as §1

Cell Line | relative viability (OSI-027 + Pemetrexed; first compound 0.01 µM) | relative viability (OSI-027 + Pemetrexed; first compound 0.03162 µM) | relative viability (OSI-027 + Pemetrexed; first compound 0.1 µM) | relative viability (OSI-027 + Pemetrexed; first compound 0.3162 µM) | relative viability (OSI-027 + Pemetrexed; first compound 1 µM) | relative viability (Vemurafenib + Trametinib; first compound 0.03162 µM) | relative viability (Vemurafenib + Trametinib; first compound 0.1 µM) | relative viability (Vemurafenib + Trametinib; first compound 0.3162 µM) | relative viability (Vemurafenib + Trametinib; first compound 1 µM) | relative viability (Alpelisib + Vorinostat; first compound 0.04 µM) | relative viability (Alpelisib + Vorinostat; first compound 0.1265 µM) | relative viability (Alpelisib + Vorinostat; first compound 0.4 µM) | relative viability (Alpelisib + Vorinostat; first compound 1.265 µM) | relative viability (Alpelisib + Vorinostat; first compound 4 µM) | relative viability (Vemurafenib + AZD7762; first compound 0.03162 µM) | relative viability (Vemurafenib + AZD7762; first compound 0.1 µM) | relative viability (Vemurafenib + AZD7762; first compound 0.3162 µM) | relative viability (Vemurafenib + AZD7762; first compound 1 µM)
NCI-H1666 | 0.853 | 0.905 | 0.832 | 0.831 | 0.787 | 0.928 | 0.786 | 1.04 | 0.86 | 0.978 | 1.1 | 1.07 | 0.876 | 0.727 | 0.782 | 0.73 | 0.729 | 0.829
NCI-H647 | 0.159 | 0.173 | 0.187 | 0.157 | 0.211 | 0.496 | 0.435 | 0.37 | 0.488 | 0.772 | 0.608 | 0.613 | 0.263 | 0.427 | 0.433 | 0.541 | 0.26 | 0.432
NCI-H23 | 0.617 | 0.757 | 0.598 | 0.47 | 0.395 | 0.295 | 0.314 | 0.457 | 0.366 | 0.634 | 0.441 | 0.411 | 0.414 | 0.332 | 0.203 | 0.178 | 0.154 | 0.21
NCI-H1915 | 0.546 | 0.516 | 0.47 | 0.449 | 0.536 | 0.308 | 0.26 | 0.328 | 0.358 | 0.543 | 0.543 | 0.577 | 0.448 | 0.509 | 0.644 | 0.728 | 0.587 | 0.612
HOP-62 | 0.371 | 0.307 | 0.341 | 0.331 | 0.261 | 0.419 | 0.36 | 0.416 | 0.594 | 0.665 | 0.558 | 0.683 | 0.456 | 0.491 | 0.551 | 0.558 | 0.395 | 0.668
NCI-H2342 | 0.755 | 0.818 | 0.752 | 0.697 | 0.5 | 0.921 | 0.747 | 0.978 | 0.769 | 0.795 | 0.622 | 0.712 | 0.662 | 0.714 | 0.462 | 0.499 | 0.47 | 0.518
NCI-H520 | 0.785 | 0.645 | 0.596 | 0.487 | 0.263 | 0.688 | 0.599 | 0.706 | 0.662 | 0.611 | 0.743 | 0.629 | 0.603 | 0.463 |  |  |  | 
COR-L23 | 0.194 | 0.194 | 0.193 | 0.181 | 0.197 | 0.619 | 0.58 | 0.433 | 0.691 | 0.438 | 0.474 | 0.398 | 0.283 | 0.272 |  |  |  | 
H3255 | 0.517 | 0.569 | 0.507 | 0.513 | 0.495 | 0.589 |  | 0.652 | 0.645 | 0.778 | 0.733 | 0.826 | 0.613 | 0.496 | 0.843 |  | 0.723 | 0.949
NCI-H1993 | 0.533 | 0.41 | 0.522 | 0.465 | 0.45 | 0.5 |  | 0.555 | 0.609 | 0.751 | 0.815 | 0.909 | 0.596 | 0.64 | 0.657 |  | 0.804 | 0.966
NCI-H1792 | 0.569 | 0.852 | 0.757 | 0.635 | 0.214 | 0.495 | 0.482 |  | 0.548 |  |  |  |  |  | 0.548 | 0.44 |  | 0.593
SW 1573 | 0.817 | 0.982 | 0.852 | 0.771 | 0.343 | 0.556 | 0.612 | 0.679 | 0.49 | 0.833 | 0.684 | 0.678 | 0.388 | 0.584 |  |  |  | 
NCI-H2085 | 0.776 | 0.879 | 0.797 | 0.841 | 0.795 | 0.529 | 0.477 | 0.663 | 0.621 | 0.801 | 0.686 | 0.888 | 0.754 | 0.633 | 0.893 | 0.804 | 0.928 | 0.997
ABC-1 |  |  |  |  |  |  |  |  |  | 1.15 | 0.602 | 0.905 | 0.869 | 0.692 | 0.668 | 0.775 | 0.622 | 0.813
NCI-H1563 | 0.754 | 0.719 | 0.72 | 0.755 | 0.543 |  |  |  |  |  |  |  |  |  |  |  |  | 
NCI-H2228 | 0.43 | 0.348 | 0.322 | 0.327 | 0.208 | 0.357 | 0.524 | 0.668 | 0.439 | 0.714 | 0.48 | 0.401 | 0.566 | 0.413 |  |  |  | 
SK-LU-1 | 1.02 | 1.03 | 0.869 | 0.689 | 0.385 | 0.468 | 0.515 | 0.459 | 0.432 | 0.817 | 0.775 | 0.847 | 0.676 | 0.689 |  |  |  | 
SK-MES-1 | 0.998 | 0.919 | 0.866 | 0.782 | 0.359 | 0.569 |  | 0.589 | 0.763 | 1.13 | 1.09 | 1.15 | 0.828 | 0.833 |  |  |  | 
NCI-H727 |  |  |  |  |  | 0.407 | 0.374 | 0.487 | 0.399 | 1.1 | 1.2 | 1.07 | 1.06 | 0.848 | 0.555 | 0.468 | 0.744 | 0.59
NCI-H2023 | 0.254 | 0.242 | 0.201 | 0.173 | 0.121 | 0.592 | 0.489 | 0.597 | 0.699 | 0.595 | 0.634 | 0.61 | 0.394 | 0.348 |  |  |  | 
NCI-H2009 | 1.15 | 1.05 | 1.04 | 0.998 | 0.687 | 0.269 | 0.272 | 0.21 | 0.372 | 0.675 | 0.711 | 0.784 | 0.669 | 0.658 |  |  |  | 
